From ChEMBL document CHEMBL2046382, “Synthesis, biological evaluation of 5-carbomethoxymethyl-7-hydroxy-2-pentylchromone, 5-carboethoxymethyl-4',7-dihydroxyflavone and their analogues” (Bioorg Med Chem Lett, 2012)
In brackets after ≈: the same amount, converted by molar mass. Activity calls are given as the source filed them. No cut-off for these calls is given here.

What was measured:
Candida albicans [1] = assay: Antifungal activity against Candida albicans MTCC 183 by well diffusion method; type: functional
Candida parapsilosis [2] = assay: Antifungal activity against Candida parapsilosis MTCC 3018 by well diffusion method; type: functional; conditions: Lodderomyces parapsilosis
Candida albicans [3] = assay: Antifungal activity against Candida albicans MTCC 3017 by well diffusion method; type: functional
Candida parapsilosis [4] = assay: Antifungal activity against Candida parapsilosis MTCC 1744 by well diffusion method; type: functional; conditions: Lodderomyces parapsilosis
Candida albicans [5] = assay: Antifungal activity against Candida albicans MTCC 1637 by well diffusion method; type: functional
Pichia kudriavzevii = assay: Antifungal activity against Issatchenkia orientalis MTCC 3020 by well diffusion method; type: functional
Candida albicans [6] = assay: Antifungal activity against Candida albicans MTCC 3958 by well diffusion method; type: functional
Nakaseomyces glabratus = assay: Antifungal activity against Candida glabrata MTCC 3019 by well diffusion method; type: functional
Candida albicans [7] = assay: Antifungal activity against Candida albicans MTCC 227 by well diffusion method; type: functional
Candida albicans [8] = assay: Antifungal activity against Candida albicans MTCC 854 by well diffusion method; type: functional
Candida albicans [9] = assay: Antifungal activity against Candida albicans MTCC 7315 by well diffusion method; type: functional
Candida albicans [10] = assay: Antifungal activity against Candida albicans MTCC 4748 by well diffusion method; type: functional
[11] = Chemical stability of the compound in antioxidant reaction; type: physicochemical
[12] = Antioxidant activity assessed as superoxide radical scavenging activity after 48 hrs; type: functional
Staphylococcus aureus [13] = assay: Antibacterial activity against Staphylococcus aureus MTCC 96 by modified microtiter broth dilution method; type: functional
Bacillus subtilis = assay: Antibacterial activity against Bacillus subtilis MTCC 121 by modified microtiter broth dilution method; type: functional
Erythrocyte = assay: Antioxidant activity in erythrocytes assessed as inhibition of hemolysis after 48 hrs; type: functional, cell-based
[14] = Antioxidant activity of the compound assessed as inhibition of lipid peroxidation after 48 hrs; type: functional
Micrococcus luteus [15] = assay: Antibacterial activity against Micrococcus luteus MTCC 2470 at 80 ug/ml by modified microtiter broth dilution method; type: functional, organism-based
Pseudomonas aeruginosa = assay: Antibacterial activity against Pseudomonas aeruginosa MTCC 2453 at 80 ug/ml by modified microtiter broth dilution method; type: functional, organism-based
Raoultella planticola = assay: Antibacterial activity against Klebsiella planticola MTCC 530 by modified microtiter broth dilution method; type: functional
Escherichia coli = assay: Antibacterial activity against Escherichia coli MTCC 739 at 80 ug/ml by modified microtiter broth dilution method; type: functional, organism-based
[16] = tested on: Radical scavenging activity; assay: Antioxidant activity assessed as DPPH free radical scavenging activity after 48 hrs; type: functional
Staphylococcus aureus [17] = assay: Antibacterial activity against Staphylococcus aureus MTCC 2940 at 80 ug/ml by modified microtiter broth dilution method; type: functional, organism-based
NCI60 = assay: Cytotoxicity against human NCI60 cells; type: functional, cell-based
[18] = Antioxidant activity in erythrocytes assessed as inhibition of hemolysis; type: functional, cell-based; conditions: erythrocyte
[19] = Antioxidant activity assessed as superoxide radical scavenging activity; type: functional
Staphylococcus aureus [20] = assay: Antibacterial activity against Staphylococcus aureus MTCC 96 at 80 ug/ml by modified microtiter broth dilution method; type: functional, organism-based
Micrococcus luteus [21] = assay: Antibacterial activity against Micrococcus luteus MTCC 2470 by modified microtiter broth dilution method; type: functional
[22] = Antioxidant activity of the compound assessed as inhibition of lipid peroxidation; type: functional
Staphylococcus aureus [23] = assay: Antibacterial activity against Staphylococcus aureus MTCC 2940 by modified microtiter broth dilution method; type: functional
[24] = tested on: Radical scavenging activity; assay: Antioxidant activity assessed as DPPH free radical scavenging activity; type: functional

SMILES	MIC (Candida albicans [1])	MIC (Candida parapsilosis [2])	MIC (Candida albicans [3])	MIC (Candida parapsilosis [4])	MIC (Candida albicans [5])	MIC (Pichia kudriavzevii)	MIC (Candida albicans [6])	MIC (Nakaseomyces glabratus)	MIC (Candida albicans [7])	MIC (Candida albicans [8])	MIC (Candida albicans [9])	MIC (Candida albicans [10])	MIC (Bacillus subtilis)	Activity (Pseudomonas aeruginosa)	MIC (Raoultella planticola)	Activity (Escherichia coli)	also measured
OC(Cn1cncn1)(Cn1cncn1)c1ccc(F)cc1F [FLUCONAZOLE]	32 µg/mL (≈ 104 µM)	16 µg/mL (≈ 52.2 µM)	64 µg/mL (≈ 209 µM)	16 µg/mL (≈ 52.2 µM)	32 µg/mL (≈ 104 µM)	128 µg/mL (≈ 418 µM)	64 µg/mL (≈ 209 µM)	64 µg/mL (≈ 209 µM)	32 µg/mL (≈ 104 µM)	32 µg/mL (≈ 104 µM)	32 µg/mL (≈ 104 µM)	32 µg/mL (≈ 104 µM)	–	–	–	–	–
COC(=O)Cc1cc(O)cc2oc(-c3ccc(OC)c(OC)c3)cc(=O)c12	–	–	–	–	–	–	–	–	–	–	–	–	9 µg/mL (≈ 24.3 µM)	inactive	18 µg/mL (≈ 48.6 µM)	inactive	Stability [11]: Unstable; Activity [12]: inactive; MIC (Staphylococcus aureus [13]): 37 µg/mL (≈ 99.9 µM); Activity (Erythrocyte): inactive; Activity [14]: inactive; Activity (Micrococcus luteus [15]): inactive; Activity [16]: inactive; Activity (Staphylococcus aureus [17]): inactive; Activity (NCI60): inactive
COC(=O)Cc1cc(O)cc2oc(-c3ccc(Cl)c(F)c3)cc(=O)c12	inactive	9 µg/mL (≈ 24.8 µM)	inactive	9 µg/mL (≈ 24.8 µM)	inactive	inactive	4 µg/mL (≈ 11 µM)	inactive	inactive	9 µg/mL (≈ 24.8 µM)	9 µg/mL (≈ 24.8 µM)	4 µg/mL (≈ 11 µM)	75 µg/mL (≈ 207 µM)	inactive	37 µg/mL (≈ 102 µM)	inactive	EC50 [18]: Not Active; EC50 [19]: 60.92 µg/mL (≈ 168 µM); Activity (Staphylococcus aureus [20]): inactive; MIC (Micrococcus luteus [21]): 18 µg/mL (≈ 49.6 µM); EC50 [22]: Not Active; MIC (Staphylococcus aureus [23]): 18 µg/mL (≈ 49.6 µM); EC50 [24]: 61.66 µg/mL (≈ 170 µM)
